Experimental data: US4552843A, “Process for producing an acidic polycyclic ether antibiotic by cultivation of a novel strain of Streptomyces endus subspecies aureus” (Pfizer Inc., priority 1984, dated 1985)

Tests used:
rumen fluid = assay: in vitro rumen technique, propionic acid production; parameters: species or system calf
Procedure: The value of animal feeds generally has been determined directly by feeding the animal. British Pat. No. 1,197,826 details an in vitro rumen technique whereby the changes occurring in feeds brought about by microorganisms are measured more readily and with great accuracy in the evaluation of animal feeds. This technique involves the use of an apparatus in which the digestive processes of the animals are conducted and studied in vitro. The animal feeds, rumen inoculum and various growth promotants are introduced into and withdrawn from a laboratory unit under carefully controlled conditions and the changes taken place are studied critically and progressively during the consumption of the feed by the microorganisms. […] The change in propionic acid content is expressed as percent of the propionic acid content found in the control rumen fluid. Long term in vivo feeding studies are used to show a reliable correlation between propionic acid increase in the rumen fluid and improved animal performance.
Rumen fluid is collected from a fistulated calf which is fed on a commercial fattening ration plus hay. The rumen fluid is immediately filtered through cheese cloth, and 10 ml added to a 50 ml conical flask containing 400 mg of standard substrate (68% corn starch +17% cellulose +15% extracted soybean meal), 10 ml of a pH 6.8 buffer and the test compound. The flasks are gassed with oxygen free nitrogen for about two minutes, and incubated in a shaking water bath at 39° C. for about 16 hours. All tests are conducted in triplicate.
After incubation, 5 ml of the sample is mixed with 1 ml of 25% metaphosphoric acid. After 10 minutes 0.25 ml of formic acid is added and the mixture centrifuged at 1500 RPM for 10 minutes. Samples are then analyzed by gas-liquid chromatography by the method of D. W. Kellog, J. Dairy Science, 52, 1690 (1969). Peak heights for acetic, propionic and butyric acids are determined for samples from untreated and treated incubation flasks.

Eimeria tenella = assay: efficacy against coccidial infections in chickens (Table II); format: in vivo; conditions: for Ratio: lesion score treated / infected control; for % Weight Gain / Average Degree of Infection: chicks; for Average Degree of Infection: lesion score 0 to 4, six days
Procedure: (§1) Efficacy data for Antibiotic CP-63,517 and its salts against coccidial infections in chickens was obtained in the following fashion. Groups of 3-5 ten-day old SPF white leghorn cockerel chicks were fed a mash diet containing Antibiotic CP-63,517, its sodium and/or potassium salt, or the known agents Monensin or Stenorol uniformly dispersed therein. After being on this ration for 24 hours each chick was inoculated per os with oocysts of the particular species of Eimeria being tested. Other groups of 3-5 ten-day old chicks were fed a similar mash diet free of any test compound. They were also infected after 24 hours and served as infected controls. Yet another group of 3-5 ten-day old chicks were fed the mash diet free of any test compound and were not infected with coccidia. These served as normal controls. The results of treatment were evaluated after five days in the case of E. acervulina, and six days for other challenges.
(§2) ^1 The criteria used to measure anticoccidial activity consisted of
(§3) lesion scores of 0 to 4 for Eimeria tenella after J. E. Lynch, "A New
(§4) Method for the Primary Evaluation of Anticoccidial Activity", Am. J. Vet.
(§5) modification of the scoring system devised by J. Johnson and W. H. Reid,
(§6) "Anticoccidial Drugs. Lesion Scoring Techniques in Battery and Floor Pen
(§7) Experiments in Chicks", Exp. Parasit. 28: 30-36 (1970). A constant ratio
(§8) was established by dividing the lesion score of each treated group by the
(§9) lesion score of the infected control.

Eimeria acervulina = assay: as above; format: in vivo; conditions: 9 ppm in diet; for Ratio: lesion score treated / infected control; for % Weight Gain / Average Degree of Infection: chicks; for Average Degree of Infection: lesion score 0 to 3, five days
Procedure: as §1, §2, §3, §4, §5, §6, §7, §8, §9

[1] = 53 ppm in diet, replicate (in parentheses)
[2] = 120 ppm in diet, replicate (in parentheses)
[3] = 0.75 ppm in diet, replicate (in parentheses)
[4] = 3 ppm in diet, replicate (in parentheses)
[5] = 9 ppm in diet, replicate (in parentheses)

## CC[C@@]1([C@@H]2O[C@@H]([C@H]3O[C@@](O)(CO)[C@H](C)C[C@@H]3C)C[C@@H]2C)CC[C@H]([C@]2(C)CC[C@]3(C[C@H](O)[C@@H](C)[C@@H]([C@@H](C)[C@@H](OC)[C@H](C)C(=O)O)O3)O2)O1 [Monensin]
Rumen fluid; 10 micrograms per milliliter (10 μg/ml), comparison with Monensin
  increase in production of propionic acid over control: about 20%
Eimeria tenella; 53 ppm in diet
  Ratio: 0.69
  % Weight Gain: 92%
  Average Degree of Infection: 2.3
Eimeria tenella; [1]
  Ratio: 0.54
  Average Degree of Infection: 1.7
  % Weight Gain: 99%
Eimeria tenella; 120 ppm in diet
  Ratio: 0.09
  % Weight Gain: 71%
  Average Degree of Infection: 0.3
Eimeria tenella; [2]
  Ratio: 0.32
  Average Degree of Infection: 1.0
  % Weight Gain: 68%

## CC[C@@H](C(=O)[C@@H](C)[C@@H](O)[C@H](C)[C@@H]1O[C@@H]([C@@H](CC)C(=O)O)CC[C@@H]1C)[C@H]1O[C@]2(C=C[C@@H](O)[C@]3(CC[C@@](C)([C@H]4CC[C@](O)(CC)[C@H](C)O4)O3)O2)[C@H](C)C[C@@H]1C [Salinomycin, reference compound]
Rumen fluid; 10 μg/ml, comparison with Salinomycin
  increase in propionic acid: about 65%

## O=C(CC1NCCCC1O)Cn1cnc2cc(Br)c(Cl)cc2c1=O (centres unmarked) [Stenorol]
Eimeria acervulina
  Ratio: 0.0
  % Weight Gain: 48%
  Average Degree of Infection: 0.0
Eimeria acervulina; replicate (in parentheses)
  Ratio: 0.0
  Average Degree of Infection: 0.0
  % Weight Gain: 51%
Eimeria tenella; 0.75 ppm in diet
  Ratio: 0.51
  % Weight Gain: 66%
  Average Degree of Infection: 1.7
Eimeria tenella; [3]
  Ratio: 0.73
  Average Degree of Infection: 2.3
  % Weight Gain: 90%
Eimeria tenella; 3 ppm in diet
  Ratio: 0.0
  % Weight Gain: 86%
  Average Degree of Infection: 0.0
Eimeria tenella; [4]
  Ratio: 0.0
  Average Degree of Infection: 0.0
  % Weight Gain: 103%
Eimeria tenella; 9 ppm in diet
  Ratio: 0.0
  % Weight Gain: 63%
  Average Degree of Infection: 0.0
Eimeria tenella; [5]
  Ratio: 0.0
  Average Degree of Infection: 0.0
  % Weight Gain: 77%
